Literature values, collected in paper PMC9231011, “Irreversible Antagonists for the Adenosine A2B Receptor” (Molecules, 2022).

Legend:
human A1AR = molecular target: T1, human A1AR (Homo sapiens, UniProt P30542); design: method as in PMID 19569717; details: read-out: A1AR vs. Radioligand [3H]CCPA Ki; cited from earlier work
T1 construct: purchased Perkin Elmer ES-010-M400UA
T1 sequence (P30542 1-326): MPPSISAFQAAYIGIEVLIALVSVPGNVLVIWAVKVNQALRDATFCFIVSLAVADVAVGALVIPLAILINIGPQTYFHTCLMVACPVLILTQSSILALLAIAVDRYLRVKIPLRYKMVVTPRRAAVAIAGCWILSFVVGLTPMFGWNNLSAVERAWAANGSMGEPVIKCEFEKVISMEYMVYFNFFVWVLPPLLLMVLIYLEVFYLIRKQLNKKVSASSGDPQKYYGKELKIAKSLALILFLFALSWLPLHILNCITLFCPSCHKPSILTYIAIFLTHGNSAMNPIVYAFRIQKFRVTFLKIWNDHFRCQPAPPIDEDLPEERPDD

human A3AR = molecular target: T2, human A3AR (Homo sapiens, UniProt P0DMS8); design: method as in PMID 19569717; details: read-out: A3AR vs. Radioligand [3H]PSB-11 Ki; cited from earlier work
T2 construct: expressed in transfected cells; host or cells: FreeStyle CHO-S cells, pcDNA3.1(+), transient
T2 sequence (P0DMS8 1-318): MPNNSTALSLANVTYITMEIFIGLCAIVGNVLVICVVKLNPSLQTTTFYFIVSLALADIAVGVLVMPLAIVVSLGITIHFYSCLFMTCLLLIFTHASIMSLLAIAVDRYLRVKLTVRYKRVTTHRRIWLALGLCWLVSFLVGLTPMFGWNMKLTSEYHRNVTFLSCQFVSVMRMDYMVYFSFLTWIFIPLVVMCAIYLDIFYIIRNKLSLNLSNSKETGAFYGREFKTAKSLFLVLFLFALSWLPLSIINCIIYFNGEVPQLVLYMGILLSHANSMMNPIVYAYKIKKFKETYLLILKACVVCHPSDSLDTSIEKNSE

hA3 = molecular target: hA3; design: method as in PMID 30835463, PMID 31646479; details: Figure 1; cited from earlier work

Measured: Ki

CCCn1c(=O)[nH]c2nc(-c3ccc(S(=O)(=O)O)cc3)[nH]c2c1=O [PSB-1115, 1-propyl-8-(p-sulfophenyl)xanthine, reference compound]
> 10 µM: all assays above
